{"source": "paper PMC6155746", "about": "(Molecules : A Journal of Synthetic Chemistry and Natural …, 2017)", "key": {"[1]": {"assay": "Permeability assay, everted rat gut model", "assay_type": "in vitro ADME, Wistar rats", "conditions": "for Papp at 120 min, 100 μM: male, Wistar, rat, everted rat gut, 37 °C, A-B", "description": "Male Wistar rats weighing 200–250 g were used in this research. Everted intestinal sacs were prepared by quickly removing the small intestine from starved rats killed under ether anesthesia. All experiments were carried out after pre-incubation at 37 ± 0.5 °C, with the duodenum and jejunum then excised, flushed-through several times with saline solution at room temperature, and placed immediately into simulated intestinal fluid (SIF). The intestine was gently everted over a steel rod and filled with fresh SIF. The sacs were preincubated in oxygenated buffer solution for 5 min and then placed in 100 mL of oxygenated SIF solution containing 0.0001 M (100 μM) of Compound 1 at 37 °C. Oxygen was bubbled with a pump to maintain viable tissue.\nThe everted intestinal sac was filled with 1.5 mL of SIF solution, while a test compound solution (0.0001 M) remained external to the everted sac. […] 300 μL samples were collected from inside the sac with a metallic cannula at 5, 10, 15, 30, 45, 60, 90, and 120 min (apical-basolateral transport A-B), after which a medium replacement was made. Both an initial and final sample of the outside solution were analyzed by HPLC.\nThe apparent intestinal permeability (Papp) was calculated according to Equation (2): (2) Papp=V/(A∗Co)dC/dt where Papp = Apparent Permeability (cm/s), V = Intestinal Volume (mL), A = Surface Area (cm^2), dC/dt = Concentration Gradient, and, Co = Initial Concentration (μg/mL)."}, "[2]": {"assay": "pKa determination via potentiometric analysis", "assay_type": "physicochemical", "conditions": "methanol/aqueous solution of ionic strength 0.02 M; Mean (±S.D.), potentiometric titration, triplicate; read-out: pKa1", "description": "The determination of pKa was undertaken as described by Babic A. et al.. Compound 1 was prepared by weighing 0.001 equivalents, which were dissolved in the minimum volume of methanol, to which aqueous solution with an ionic strength of 0.02 M was added to obtain a final concentration for Compound 1 of 0.006 M. It was titrated with NaOH 0.01 N, which had been previously evaluated with an ionic strength of 0.02 M using Logger Pro 3.5.0 software (Vernier Software & Technology, Beaverton, OR, USA). The study was conducted in triplicate, determining the final points using the criteria from the first and second derivative test."}, "[3]": {"assay": "Bioavailability / pharmacokinetic study, oral and intravenous administration", "assay_type": "in vivo, Wistar rats", "set-up": "average clearance (CL): unit not given here", "conditions": "for half-life: read-out: T1/2el (converted)", "description": "Male Wistar rats weighing 250–300 g were used for pharmacokinetic evaluation. Animals were individually identified by tail markings and acclimated to the study environment for seven days prior to the administration of the dose. Animals were kept on a 12 h light/dark cycle except when this was interrupted for study procedures. Animals were kept at average room temperature, which was regulated in the range of 18 to 29 °C. The animals were fasted prior to dose administration, and had access to water ad libitum.\nRats were anesthetized with ether and cannulated via the caudal vein using polyethylene tubing with an internal diameter of 0.023 inches, and an outer diameter of 0.038 inches (Becton Dickinson Clay Adams).\nCompound 1 was prepared with Cremophore (10%) in physiologic saline solution and administered orally in a 50 mg/kg dose, and via intravenous bolus (50 mg/kg). Study was conducted in quintuplicate.\nAfter dosing, serial blood samples were collected (0.2 mL) 0, 0.083, 0.16, 0.25, 0.33, 0.50, 0.75, 1.0, 1.5, 2.0, 3.0, 4.0, 6.0, and 8 h after both oral and intravenous administration using heparinized (20 UI) tubes, and were centrifuged at 5000× g for 10 min, with the plasma harvested and analyzed by HPLC using the previously validated method.\nThe pharmacokinetic parameters of Compound 1 were obtained via non-compartmental analysis using PK software (PKSolver). The STATA statistical program, version 12, was used for the comparison of the following: the pharmacokinetic parameters obtained via both administration pathways (Cmax and Tmax); the elimination rate constant (kel); the biological half-life; the area under the curve (AUC0–t); the area under the curve from zero to infinity (AUC0–∞); volume of distribution (Vd); clearance (Cl); and, absolute bioavailability (F)."}, "plasma glucose levels": {"test_system": "plasma glucose levels", "set-up": "method as in PMID 23597793, PMID 23453304", "conditions": "non-insulin dependent diabetes mellitus rat model, 7 h post-administration, Compound 1 at 50 mg/kg single dose; cited from earlier work"}, "[4]": {"test_system": "11β-hydroxysteroid dehydrogenase type 1 (11β-HSD1)", "set-up": "method as in PMID 23597793", "conditions": "at 10 μM, HEK293 cells; cited from earlier work"}, "[5]": {"assay": "Apparent partition coefficient (octanol-water log D, shake-flask)", "assay_type": "physicochemical", "conditions": "n-octanol/phosphate buffer", "description": "The octanol-water distribution coefficient was determined using the shake-flask method. The two phases were mutually saturated by shaking for 15 min. Phosphate buffers were used as the aqueous phase for the pH range 1.2 to 13. 5 mL portions of different buffer solutions (pH 1.2 to 13) containing 100 μg/mL of Compound 1 were mixed with 2.5 mL of n-Octanol. The mixture was shaken for 30 min, centrifuged at 8000× g for 10 min, after which the aqueous and organic phases were separated. Aqueous samples were analyzed at 222 nm using a validated spectrophotometric method (5–200 μg·mL^−1). The distribution coefficient (log D) was calculated according to Equation (1) for each pH value: (1) Log D=log[Compound]org/[Compound ]aq where [Compound]org is the drug concentration in the organic phase (determined by mass balance) and [Compound]aq is the drug concentration in the aqueous phase for each buffer solution. Every experiment was evaluated in triplicate."}, "[6]": {"conditions": "reported in the rat, oral; cited from earlier work"}, "rat": {"test_system": "rat", "conditions": "in vivo, po; cited from earlier work"}, "[7]": {"conditions": "duodenum, read-out: Papp Duodenum"}, "[8]": {"conditions": "jejunum, read-out: Papp Jejunum"}, "[9]": {"conditions": "Compound 1, intravenous, 50 mg/kg, Wistar rat, mean"}, "[10]": {"conditions": "Compound 1, oral, 50 mg/kg, Wistar rat, mean"}, "[11]": {"conditions": "male, plasma, Compound 1, intravenous, 50 mg/kg, Wistar rat, mean"}, "[12]": {"conditions": "male, plasma, Compound 1, oral, 50 mg/kg, Wistar rat, mean"}}, "note": "Values joined by “and” are separate entries in the source; they are usually repeats but may differ in a detail not shown here. Equal entries are not always repeated. Where two headings read alike, the source gives them in different places.", "data": [{"smiles": "CC1(C)S[C@@H]2[C@H](NC(=O)[C@H](N)c3ccc(O)cc3)C(=O)N2[C@H]1C(=O)O", "note": "[Amoxicillin, amoxicillin, reference compound]", "values": [{"measurement": "Papp at 120 min, 100 μM", "setting": "[1]; [7]", "result": 8.52, "unit": "×10⁻⁶ cm/s"}, {"measurement": "Papp at 120 min, 100 μM", "setting": "[1]; [8]", "result": 10, "unit": "×10⁻⁶ cm/s"}]}, {"smiles": "CC(C)(Oc1ccc(Cl)cc1)C(=O)Nc1nnn[nH]1", "note": "[Compound 1, 2-(4-chlorophenoxy)-2-methyl-N-(1H-tetrazol-5-yl) propanamide]", "values": [{"measurement": "pKa", "setting": "[2]", "result": 4.43}, {"measurement": "permeability classification", "setting": "[1]; compared to the standards naproxen and amoxicillin", "result": "low permeability"}, {"measurement": "Papp at 120 min, 100 μM", "setting": "[1]; [7]", "result": 8.73, "unit": "×10⁻⁶ cm/s"}, {"measurement": "Papp at 120 min, 100 μM", "setting": "[1]; [8]", "result": 16.2, "unit": "×10⁻⁶ cm/s"}, {"measurement": "average ABC0–α", "setting": "[3]; Compound 1, intravenous", "result": 38800, "unit": "ng·h/mL"}, {"measurement": "ABC0–t", "setting": "[3]; [9]", "result": 30.5, "unit": "μg/mL·h"}, {"measurement": "ABC0–α", "setting": "[3]; [9]", "result": 38.8, "unit": "μg/mL·h"}, {"measurement": "Cl", "setting": "[3]; [9]", "result": 484.5, "unit": "mL/h"}, {"measurement": "average ABC0–α", "setting": "[3]; Compound 1, oral", "result": 2580, "unit": "ng·h/mL"}, {"measurement": "average clearance (CL)", "setting": "[3]; Compound 1, oral", "result": 751.2}, {"measurement": "ABC0–t", "setting": "[3]; [10]", "result": 2.37, "unit": "μg/mL·h"}, {"measurement": "ABC0–α", "setting": "[3]; [10]", "result": 2.58, "unit": "μg/mL·h"}, {"measurement": "Cl", "setting": "[3]; [10]", "result": 751.2, "unit": "mL/h"}, {"measurement": "Ka", "setting": "[3]; [10]", "result": 3.05, "unit": "h⁻¹"}, {"measurement": "clearance", "setting": "[3]; male, Wistar, rat, plasma, 50 mg/kg, Compound 1, intravenous, read-out: average clearance (CL) (converted)", "result": 8.07, "unit": "mL/min"}, {"measurement": "half-life", "setting": "[3]; male, Wistar, rat, plasma, iv, 50 mg/kg, Compound 1, intravenous, 50 mg/kg, Wistar rat, mean", "result": 42.6, "unit": "min"}, {"measurement": "half-life", "setting": "[3]; male, Wistar, rat, plasma, po, 50 mg/kg, Compound 1, oral, 50 mg/kg, Wistar rat, mean", "result": "~22.8", "unit": "min"}, {"measurement": "Vd", "setting": "[3]; [11]", "result": "0.4 L and 1.3 L/kg"}, {"measurement": "k el", "setting": "[3]; [11]", "result": 0.000336, "unit": "s⁻¹"}, {"measurement": "bioavailability", "setting": "[3]; male, plasma, Compound 1, oral vs intravenous, 50 mg/kg, Wistar rat, mean", "result": 10.4, "unit": "%"}, {"measurement": "Cmax", "setting": "[3]; [12]", "result": 3570, "unit": "ng/mL"}, {"measurement": "Tmax", "setting": "[3]; [12]", "result": 19.8, "unit": "min"}, {"measurement": "k el", "setting": "[3]; [12]", "result": 0.000503, "unit": "s⁻¹"}, {"measurement": "reduction in glucose levels in the plasma", "setting": "plasma glucose levels", "result": "up to 77%"}, {"measurement": "inhibition of 11β-HSD1", "setting": "[4]", "result": 51.17, "unit": "%"}, {"measurement": "log D", "setting": "[5]; pH 1 to 5", "result": "positive"}, {"measurement": "Log D", "setting": "[5]; pH 7", "result": "below zero"}]}, {"smiles": "CC(C)(Oc1ccc(Cl)cc1)C(=O)O", "note": "[Compound 2, Clofibric acid]", "values": [{"measurement": "average lifetime (half-life) of clofibric acid", "setting": "[6]", "result": "420 to 480", "unit": "min"}, {"measurement": "DL50", "setting": "rat", "result": 940, "unit": "mg/kg"}]}, {"smiles": "COc1ccc(Cl)cc1C(=O)NCCc1ccc(S(=O)(=O)NC(=O)NC2CCCCC2)cc1", "note": "[glibenclamide, reference compound]", "values": [{"measurement": "reduction in glucose levels in the plasma", "setting": "plasma glucose levels", "result": 40, "unit": "%"}]}]}
